Reference: patent US4619932A, “Novel carbostyril derivatives, process for producing thereof and pharmaceutical composition containing the same” (Otsuka Pharmaceutical Co., Ltd., priority 1980, dated 1986)
Counter-ions that a name gives are not always drawn. Like-named read-outs stand apart in the source and are kept apart here.

How the values were obtained:
[1] = biological target: retraction of ileum caused by histamine (Cavia porcellus, UniProt P31389); test: Antihistaminic activity test in vitro, enucleated ileum of guinea pig; set-up: species or system guinea pig (male)
Text: (E) Antihistaminic activity test
As to the test method for determining antihistaminic activity of a compound in vitro, a method of using an enucleated ileum of a guinea pig is generally accepted. Antihistaminic activity of the present compounds was conduted according to said method as follows:
A male guinea pig having 300 to 500 g body weight was killed by blood letting. An ileum having length of 15 cm being enucleated from the ileocecal region was dipped into Tyrode's solution (which was prepared from 8.0 g of NaCl, 0.2 g of KCl, 0.2 g of CaCl2, 1.0 g of glucose, 1.0 g of NaHCO3, 0.065 g of NaHPO4.2H2 O and 0.2135 g of MgCl2.6H2 O make 1000 ml in total volume by adding water). Then the tissue of ileum was cut to a length of 2.5 to 3.0 cm and suspended in an organ bath filled with 30 ml of Tyrode's solution. The organ bath was kept a temperature of 36° C. and blowing a mixed gas consisting of 5% of CO2 and 95% of O2 into the bath. 10 Minutes after the blowing, 10^-6M of histamine was added to the bath to examine the sensitivity of the tissue and a reaction curve (control) with respect to the dosage of histamine was obtained. After the dosage of histamine-reaction curve (control) become constant 10^-6 g/ml of a compound to be tested was added to the bath and further histamine was added 5 minutes later to obtain dosage-reaction curve. Retraction of the isotonic was recorded on a pen-recorder through an isotonic transducer (TD-112S manufactured by Nihon Koden). Antihistaminc activity of the test compound was determined as pA2 value by "Van Rossam" method (J. M. Van Rossam: Arch. Inst. Pharmacodyn. Ther., 143, 299 (1963)) in terms of that the maximum retraction of ileum caused by histamine shown in the control curve is 100%.

male rats = conditions: rat, in vivo, po
Method: Each of the following compound of the general formula in the present invention was administered orally to male rats to determine the acute toxicity (LD50 mg/kg).

[2] = system: jumping behavior induced by Methamphetamine and L-DOPA; test: Activity for inhibiting jumping behavior in mouse induced by Methamphetamine and L-DOPA; format: in vivo, mouse (male, ddy-strain); conditions: oral, Methamphetamine 4 mg/kg i.p. and L-DOPA 400 mg/kg i.p., positive = 10 or fewer jumps, read-out: ED50 value, inhibition of jumping behavior
Method: (B) Activity for inhibiting jumping behavior in mouse induced by Methamphetamine and L-DOPA
Individual male mice of ddy-strain having a body weight of 17 to 25 g were used. The mice were not fed for 24 hours. One test group consisted of 6 mice. A compound to be tested was administered orally. 40Minutes after the administration 4 mg/kg of Methamphetamine d-N-α-dimethylphenthylamine was intraperitonerally administered, further 15 minutes after the administration of Methamphetamine, 400 mg/kg of L-DOPA was intraperitonerally administered. 60 Minutes after the administration of L-DOPA, (3-(3,4-dihydroxyphenyl)alanine) the mouse was placed in a glass beaker of 2 liters capacity, and the number of jumping of the mouse was recorded. The activity for inhibiting jumping behavior of the test compound was determined as positive in case of number of jumping performed by the administered mouse counted 10 or less. While, the activity for inhibiting jumping behabior of the test compound was determined as negative in case the number of jumping performed by the administered mouse recorded over 10. The effective dosage (ED50 value: mg/kg) of the test compound which gives 3 mice were positive over 6 mice of one test group was calculated. The number of jumping performed by the mouse being administered with physiological saline solution as the reference was 150 to 200 per hour. (Cf. H. Lal, F. C. Colpaert, P. Laduron: European J. Pharmacol., 30, 113-116 (1975)).

epinephrine = test: Activity for antagonizing epinephrine in mouse; format: in vivo, mouse (male, ddy strain); conditions: oral, 1 hour before epinephrine 40 mg/kg i.p., survival at 24 hours, read-out: ED50 value, dose allowing half the animals to survive
Method: (C) Activity for antagonizing epinephrine in mouse
Individual male mice of ddy strain having 17 to 20 g of body weight were used. The mice were abstained from eating for 24 hours. One test group consist of 10 mice. A compound to be tested was administered orally. One hour after the administration, 40 mg/kg of epinephrine was intraperitonerally administered. […] All of 10 mice administered physiological saline solution as the reference group were dead within a few minutes after the administration of epinephrine. (Cf. Loew, E. R. and Micetich, A., J. Pharmacol. Exp. Ther., 93, 434-443 (1948)).

Halothane anesthesia = Halothane anesthesia increasing activity; format: in vivo, mouse (male, ddy-strain); conditions: 16 mg/kg oral, 1 hour before 4% Halothane for 3 minutes; righting reflex
Method: Male mice of ddy-strain a having about 20 g body weight were used. One test group consists of 10 mice. An aqueous Gummi Arabicum suspension of test compound (80 mg of a compound to be tested and 1 g of Gummi Arabicum/100 ml of physiological NaCl solution) was administered orally to each mouse at the dosage of 16 mg of test compound/kg body. One hour after the administration, each mouse was placed in gas respiration chamber (13×13×24 cm) and oxygen gas containing 4% of Halothane (2-brome-2-chloro-1,1,1-trifluoroethane) was flown into the chamber at the velocity of 2/min for 3 minutes. A mouse anaesthetized was taken out from the chamber and the time between the introduction of anesthesia to waking was measured by righting reflex as the index. To mice of control group, 1% Gummi Arabicum aqueous physiological solution was orally administered at the dosage of 0.1 ml/kg body.

palpebral ptosis = test: Palpebral ptosis test in mouse; format: in vivo, mouse (male, ddy-strain); conditions: 64 mg/kg oral, 1 hour; score 0 (wide open eyes) to 8 (eyes completely closed); mean of 10 mice
Method: (D) Activity of palpebral ptosis test in mouse
Individual male mice of ddy-strain having 18 to 20 g of body weight were used. The mice were abstained from eating for 24 hours. One test group consists of 10 mice. […] One hour after the administration, the state of palpebral ptosis of the mouse were observed and evaluated on the basis of the following score system. The mean value was calculated from the scores of 10 mice.
Score Degree of palpebral ptosis
8 Eyes completely closed.

[3] = 10^-6 g/ml test compound, histamine, Tyrode's solution, 36° C., Van Rossam method, read-out: pA2 (converted)

retraction of ileum caused by histamine, sequence (P31389 whole entry): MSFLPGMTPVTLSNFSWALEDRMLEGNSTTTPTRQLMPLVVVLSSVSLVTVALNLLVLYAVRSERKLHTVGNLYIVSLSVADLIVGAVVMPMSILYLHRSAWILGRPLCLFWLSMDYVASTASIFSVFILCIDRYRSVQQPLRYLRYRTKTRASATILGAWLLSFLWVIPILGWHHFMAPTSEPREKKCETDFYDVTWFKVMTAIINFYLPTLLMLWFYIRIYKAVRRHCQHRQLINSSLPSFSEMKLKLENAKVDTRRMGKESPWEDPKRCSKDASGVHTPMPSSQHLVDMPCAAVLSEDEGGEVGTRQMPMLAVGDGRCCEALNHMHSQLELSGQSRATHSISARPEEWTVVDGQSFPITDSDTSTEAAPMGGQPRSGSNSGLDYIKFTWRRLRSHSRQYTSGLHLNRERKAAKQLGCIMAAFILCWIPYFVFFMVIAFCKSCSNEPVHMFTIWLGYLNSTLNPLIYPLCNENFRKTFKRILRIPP

Row | SMILES | Kb [1, 3] [nM] | Acute toxicity (LD50) (male rats) [mg/kg] | ED50 [2] [mg/kg] | ED50 (epinephrine) [mg/kg] | Time (minutes) between introduction of anesthesia to waking (Halothane anesthesia) [min] | Score obtained (Mean value), degree of palpebral ptosis (palpebral ptosis) | Kb [1] [nM]
1 | O=C1CCc2cc(C(=O)CCN3CCC(Cc4ccccc4)CC3)ccc2N1 [Compound 24] | 58.9 | 500 | – | – | – | – | –
2 | O=C1CCc2cc(C(=O)CCN3CCN(c4ccccc4)CC3)ccc2N1 [Compound 1, 6-[1-Oxo-3-(4-phenyl-1-piperazinyl)propyl]-3,4-dihydrocarbostyril] | – | 500 | 1.35 | 3.03 | 13.3 | 1.67 | –
3 | O=C1CCc2cc(C(=O)CCCN3CCN(c4ccccc4Cl)CC3)ccc2N1 [Compound 3, 6-{1-Oxo-4-[4-(2-chlorophenyl)-1-piperazinyl]butyl}-3,4-dihydrocarbostyril.monohydrochloride.monohydrate] | – | 500 | 1.05 | 6.12 | 8.0 | 2.0 | –
4 | O=C1CCc2c(CCCN3CCN(c4ccccc4)CC3)cccc2N1 [Compound 22, 5-[3-(4-Phenyl-1-piperazinyl)propyl]-3,4-dihydrocarbostyril] | 97.7 | 500 | – | – | – | – | –
5 | O=C1CCc2cc(C(=O)CCCN3CCN(c4ccccc4)CC3)ccc2N1 [Compound 2, 6-[1-Oxo-4-(4-phenyl-1-piperazinyl)butyl]-3,4-dihydrocarbostyril.monohydrochloride] | – | 500 | 1.52 | 4.02 | 11.5 | 4.5 | –
6 | Cc1ccc(C2=CCN(CC=Cc3ccc4c(c3)CCC(=O)N4)CC2)cc1 [Compound 23, 6-{3-[4-(4-Methylphenyl)-1,2,5,6-tetrahydropyridyl]-1-propenyl}-3,4-dihydrocarbostyril] | – | 500 | – | – | – | – | 15.5
7 | CN1C(=O)CCc2cc(C(=O)CCN3CCN(c4ccccc4)CC3)ccc21 [Compound 20, 1-Methyl-6-[1-oxo-3-(4-phenyl-1-piperazinyl)propyl]-3,4-dihydrocarbostyril.monooxalate] | 26.3 | 500 | – | – | – | – | –
8 | Cc1cccc(N2CCN(CC=Cc3ccc4c(c3)CCC(=O)N4Cc3ccccc3)CC2)c1 [Compound 21, 1-Benzyl-6-{3-[4-(3-methylphenyl)-1-piperazinyl]-1-propenyl}-3,4-dihydrocarbostyril monooxalate] | 49 | – | – | – | – | – | –
